Holding throughout (type): biochemical
For assay [1], the target named is T1, EGFR (Homo sapiens, UniProt P00533).
T1 construct: The intracellular portion of EGFR started at nucleotide 2189 (corresponding to amino acid 667) and ended at the termination codon; made in house; host or cells: Sf9 insect cells (baculovirus)
Nature of the assay: EGFR Kinase Assay. The conditions noted are these: for inhibition at 2 µM: test concentration of 2 μM, compounds without an IC50, read-out: EGFR inhibition in percent; for IC50: GST-EGFR, ATP 5 μM. The method in brief:
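GST-fused human EGFR intracellular domain (from aa 667), Sf9-expressed, phosphorylated biotinylated polyGluTyr with 5 μM ATP plus γ-33P ATP in Tris pH 8.0, MgCl2, vanadate, 1 mM DTT, 1 h at 30 °C. Streptavidin Flashplate scintillation read; triplicate 16-point half-log series from 200 uM; IC50 from % inhibition vs log concentration, else % inhibition at 2 μM.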

Assay [2] has as its target T2, c-Src kinase (human) (Homo sapiens, UniProt P12931).
T2 construct: purchased Upstate Biotechnology, Lake Placid, N.Y
Nature of the assay: c-Src Kinase Assay. To be noted: test concentration of 2 μM; multiple values are separate assay results. The method in brief:
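Inhibition was read as 33P incorporation, counted on P30 filtermats, after a 40 min, 30° C reaction. Human c-Src acted on 100 μM Cdc2 peptide with 5 μM ATP (final), pH 7.0 MOPS/MgCl2. Values are percent inhibition at 2 μM compound, or IC50 where determined.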

The target in assay [3] is T3, Lyn kinase (human) (Homo sapiens, UniProt P07948).
T3 construct: purchased Upstate Biotechnology, Lake Placid, N.Y
Nature of the assay: Lyn Kinase Assay. To be noted: test concentration of 2 μM. In a few lines: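 Radiometric filter-binding assay with recombinant human Lyn, poly(Glu,Tyr) substrate (0.1 mg/mL final), 5 μM ATP plus γ-33P-ATP in MOPS pH 7.5/Mg acetate buffer; 40 min at 30 °C, stopped with phosphoric acid, counted by scintillation. Reported as percent inhibition at 2 μM, with IC50 (μM) where determined.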

In assay [4] the target is T4, HER-2 (Homo sapiens, UniProt P04626).
T4 construct: His6 with thrombin site (N); purchased Proqinase (Freiburg, Germany)
Briefly: HER-2 Kinase Assay. To be noted: for IC50: value in parentheses; for inhibition at 1 µM: test concentration of 1 μM. The method in brief: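 GST/HIS6-tagged HER-2 aa 679–1255 kinase with biotinylated polyGluTyr (1.5 ng/μL), 1 μM ATP plus γ-33P-ATP, Mg2+/Mn2+, DTT, Hepes pH 7.5; 1 h at 30 °C. Substrate phosphorylation captured on streptavidin scintillation plates after EDTA/PBS washes; values are % inhibition at 1 μM or IC50.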

T4 sequence (P04626 679-1255): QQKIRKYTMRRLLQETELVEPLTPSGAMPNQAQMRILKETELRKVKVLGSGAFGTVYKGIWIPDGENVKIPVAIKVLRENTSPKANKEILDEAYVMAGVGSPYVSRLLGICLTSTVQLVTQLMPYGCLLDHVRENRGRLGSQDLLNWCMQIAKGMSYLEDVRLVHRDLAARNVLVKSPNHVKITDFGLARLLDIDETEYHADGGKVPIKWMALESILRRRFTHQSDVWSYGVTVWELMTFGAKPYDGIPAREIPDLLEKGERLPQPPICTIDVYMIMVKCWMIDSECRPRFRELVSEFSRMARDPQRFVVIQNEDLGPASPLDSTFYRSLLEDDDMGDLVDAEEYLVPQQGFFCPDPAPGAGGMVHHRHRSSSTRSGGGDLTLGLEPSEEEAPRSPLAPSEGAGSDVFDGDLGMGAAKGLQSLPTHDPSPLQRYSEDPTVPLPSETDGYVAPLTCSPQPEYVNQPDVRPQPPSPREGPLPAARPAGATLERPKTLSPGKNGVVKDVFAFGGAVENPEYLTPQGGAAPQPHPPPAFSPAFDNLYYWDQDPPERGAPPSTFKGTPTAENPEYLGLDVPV
T1 sequence (P00533 669-1210 limits assumed): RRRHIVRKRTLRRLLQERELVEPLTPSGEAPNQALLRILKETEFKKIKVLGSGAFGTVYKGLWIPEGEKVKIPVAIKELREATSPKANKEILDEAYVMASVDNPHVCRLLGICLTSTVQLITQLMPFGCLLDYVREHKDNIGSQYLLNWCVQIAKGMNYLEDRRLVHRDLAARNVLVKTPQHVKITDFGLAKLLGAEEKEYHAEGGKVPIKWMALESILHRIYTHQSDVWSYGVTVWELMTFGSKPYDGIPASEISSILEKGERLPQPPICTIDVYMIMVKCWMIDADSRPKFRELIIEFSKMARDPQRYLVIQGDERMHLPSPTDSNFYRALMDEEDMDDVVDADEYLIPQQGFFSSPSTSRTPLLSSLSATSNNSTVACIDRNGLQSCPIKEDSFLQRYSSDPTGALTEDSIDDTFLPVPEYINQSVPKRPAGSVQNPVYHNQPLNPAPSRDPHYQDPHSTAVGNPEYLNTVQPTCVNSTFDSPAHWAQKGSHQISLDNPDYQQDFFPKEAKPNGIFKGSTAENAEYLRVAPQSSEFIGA
T2 sequence (P12931 whole entry): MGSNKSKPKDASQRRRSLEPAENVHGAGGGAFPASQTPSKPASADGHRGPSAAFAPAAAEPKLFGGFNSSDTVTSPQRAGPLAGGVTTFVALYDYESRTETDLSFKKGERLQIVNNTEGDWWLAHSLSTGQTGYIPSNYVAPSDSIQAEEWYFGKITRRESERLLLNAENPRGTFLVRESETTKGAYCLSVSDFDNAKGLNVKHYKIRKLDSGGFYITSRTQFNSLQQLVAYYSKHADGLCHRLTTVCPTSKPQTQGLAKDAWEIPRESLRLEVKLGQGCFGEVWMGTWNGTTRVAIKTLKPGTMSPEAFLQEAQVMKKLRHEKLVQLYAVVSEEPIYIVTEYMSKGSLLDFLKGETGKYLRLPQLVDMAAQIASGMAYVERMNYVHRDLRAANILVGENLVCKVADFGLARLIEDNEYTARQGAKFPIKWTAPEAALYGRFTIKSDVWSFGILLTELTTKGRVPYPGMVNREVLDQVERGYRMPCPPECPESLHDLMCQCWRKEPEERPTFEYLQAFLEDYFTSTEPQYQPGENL
T3 sequence (P07948 whole entry): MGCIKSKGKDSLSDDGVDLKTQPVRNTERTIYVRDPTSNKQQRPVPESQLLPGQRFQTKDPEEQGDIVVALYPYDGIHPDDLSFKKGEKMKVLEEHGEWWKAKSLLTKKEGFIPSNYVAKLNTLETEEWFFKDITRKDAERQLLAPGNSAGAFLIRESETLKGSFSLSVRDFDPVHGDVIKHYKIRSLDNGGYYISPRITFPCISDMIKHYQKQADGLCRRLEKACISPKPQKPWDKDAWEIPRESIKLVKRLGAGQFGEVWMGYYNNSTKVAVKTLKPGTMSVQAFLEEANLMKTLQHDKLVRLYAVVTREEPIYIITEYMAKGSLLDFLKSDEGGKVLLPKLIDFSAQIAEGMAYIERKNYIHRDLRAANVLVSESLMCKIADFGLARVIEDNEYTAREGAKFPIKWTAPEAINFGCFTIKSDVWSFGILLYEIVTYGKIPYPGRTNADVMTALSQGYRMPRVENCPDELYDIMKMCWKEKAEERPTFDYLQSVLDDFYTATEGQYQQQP

Take `O=C(Nc1ccc(CN2CCCCC2)cc1)c1sc2ncnc3c2c1NC(=O)N3c1ccc(N2CCOCC2)cc1` [Cpd 124, 5-(4-morpholin-4-yl-phenyl)-4-oxo-4,5-dihydro-3H-1-thia-3,5,6,8-tetraaza-acenaphthylene-2-carboxylic acid (4-piperidin-1-ylmethyl-phenyl)-amide]: the inhibition – broadly, the relative decrease from the control value, in per cent – at 2 µM stood at 9% in assay [1], 30% in assay [2] and 18% in assay [3]. Also, in assay [4], the IC50 (in general, the concentration needed to halve the response being measured) was > 100000 nM.

As to `O=C(Nc1ccc(N2CCOCC2)cc1)c1sc2ncnc3c2c1NC(=O)N3c1ccc(N2CCOCC2)cc1` [Cpd 125, 5-(4-morpholin-4-yl-phenyl)-4-oxo-4,5-dihydro-3H-1-thia-3,5,6,8-tetraaza-acenaphthylene-2-carboxylic acid (4-morpholin-4-yl-phenyl)-amide], the inhibition at 2 µM in assay [1] amounted to 20%; in assay [2] it was 5%; in assay [3], 21%. Further, the IC50 in assay [4] was > 100000 nM.

For `CC(C)(C)OC(=O)N1CCC(NC(=O)c2sc3ncnc4c3c2NC(=O)N4c2ccc(N3CCOCC3)cc2)CC1` [Cpd 126, 4-{[5-(4-morpholin-4-yl-phenyl)-4-oxo-4,5-dihydro-3H-1-thia-3,5,6,8-tetraaza-acenaphthylene-2-carbonyl]-amino}-piperidine-1-carboxylic acid tert-butyl ester], the inhibition at 2 µM is 3% in assay [1], -4% in assay [2] and 19% in assay [3]. For the same compound, the IC50 in assay [4] is > 100000 nM.

With `O=C(NCc1ccco1)c1sc2ncnc3c2c1NC(=O)N3c1ccc(N2CCOCC2)cc1` [Cpd 127, 5-(4-morpholin-4-yl-phenyl)-4-oxo-4,5-dihydro-3H-1-thia-3,5,6,8-tetraaza-acenaphthylene-2-carboxylic acid (furan-2-ylmethyl)-amide], the inhibition at 2 µM in assay [1] is 0.5%; in assay [2] it was -2%; in assay [3], 25%. In assay [4], the IC50 is > 100000 nM.

Turning to `Cc1ccc(Oc2ccc(N3C(=O)Nc4c(C(=O)Nc5ccc(CN6CCOCC6)cc5)sc5ncnc3c45)cc2Cl)cn1` [Cpd 129, 5-[3-chloro-4-(6-methyl-pyridin-3-yloxy)-phenyl]-4-oxo-4,5-dihydro-3H-1-thia-3,5,6,8-tetraaza-acenaphthylene-2-carboxylic acid (4-morpholin-4-ylmethyl-phenyl)-amide], the IC50 in assay [1] came out at 154 nM; in assay [4], 515 nM. In addition, the values for the inhibition at 2 µM in assay [2] and in assay [3] were -3% and 10%, respectively. The inhibition at 1 µM in assay [4] is 63%.

Regarding `O=C(Nc1ccccc1)c1sc2ncnc3c2c1NC(=O)N3c1cccc(Br)c1` [Cpd 130, 5-(3-bromo-phenyl)-4-oxo-4,5-dihydro-3H-1-thia-3,5,6,8-tetraaza-acenaphthylene-2-carboxylic acid phenylamide], the IC50 in assay [1] was 191 nM; in assay [4], > 100000 nM. Further, the inhibition at 2 µM in assay [2] is -3%; in assay [3] it was 32%.

Regarding `O=C(Nc1ccc(CN2CCCCC2)cc1)c1sc2ncnc3c2c1NC(=O)N3c1ccc(Oc2cccc(F)c2)cc1` [Cpd 131, 5-[4-(3-fluoro-phenoxy)-phenyl]-4-oxo-4,5-dihydro-3H-1-thia-3,5,6,8-tetraaza-acenaphthylene-2-carboxylic acid (4-piperidin-1-ylmethyl-phenyl)-amide], the IC50 in assay [1] was 10 nM; in assay [4] it was 84 nM. In addition, the inhibition at 2 µM in assay [2] was determined as 36%; in assay [3], 41%. In assay [4], the inhibition at 1 µM stood at 91%.

As to `O=C(Nc1ccc(CCN2CCCCC2)cc1)c1sc2ncnc3c2c1NC(=O)N3c1ccc(Oc2cccc(F)c2)cc1` [Cpd 132, 5-[4-(3-fluoro-phenoxy)-phenyl]-4-oxo-4,5-dihydro-3H-1-thia-3,5,6,8-tetraaza-acenaphthylene-2-carboxylic acid [4-(2-piperidin-1-yl-ethyl)-phenyl]-amide], the IC50 turned out to be 15 nM in assay [1] and 495 nM in assay [4]. For the same compound, the inhibition at 2 µM is 32% in assay [2] and 33% in assay [3]. The inhibition at 1 µM in assay [4] stood at 76%.

Consider `O=C(NCCCO)c1sc2ncnc3c2c1NC(=O)N3c1ccc(Oc2cccc(F)c2)cc1` [Cpd 133, 5-[4-(3-fluoro-phenoxy)-phenyl]-4-oxo-4,5-dihydro-3H-1-thia-3,5,6,8-tetraaza-acenaphthylene-2-carboxylic acid (3-hydroxy-propyl)-amide], for which the IC50 in assay [1] is 34 nM; in assay [4], > 10000 nM. Besides, the inhibition at 2 µM in assay [2] came out at 16%; in assay [3] it was 20%. Besides, the inhibition at 1 µM in assay [4] came to 0%.

Take `O=C(Nc1ccc(CN2CCOCC2)cc1)c1sc2ncnc3c2c1NC(=O)N3c1ccc(Oc2cccc(F)c2)cc1` [Cpd 134, 5-[4-(3-fluoro-phenoxy)-phenyl]-4-oxo-4,5-dihydro-3H-1-thia-3,5,6,8-tetraaza-acenaphthylene-2-carboxylic acid (4-morpholin-4-ylmethyl-phenyl)-amide]: the IC50 is 21 nM in assay [1] and 87 nM in assay [4]. The inhibition at 2 µM in assay [2] is 49%; in assay [3] it was 48%. For the same compound, in assay [4], the inhibition at 1 µM amounted to 35%.

On to `O=C(Nc1ccc(CN2CCCCC2)cc1)c1sc2ncnc3c2c1NC(=O)N3c1ccc(Oc2ccccc2)c(Cl)c1` [Cpd 135, 5-(3-chloro-4-phenoxy-phenyl)-4-oxo-4,5-dihydro-3H-1-thia-3,5,6,8-tetraaza-acenaphthylene-2-carboxylic acid (4-piperidin-1-ylmethyl-phenyl)-amide], for which the results for the IC50 in assay [1] and in assay [4] were 18 nM and 90 nM, respectively. In addition, the values for the inhibition at 2 µM in assay [2] and in assay [3] were 12% and 46%, respectively. In addition, the inhibition at 1 µM in assay [4] is 85%.

Turning to `O=C(Nc1ccc(CCN2CCCCC2)cc1)c1sc2ncnc3c2c1NC(=O)N3c1ccc(Oc2ccccc2)c(Cl)c1` [Cpd 136, 5-(3-chloro-4-phenoxy-phenyl)-4-oxo-4,5-dihydro-3H-1-thia-3,5,6,8-tetraaza-acenaphthylene-2-carboxylic acid [4-(2-piperidin-1-yl-ethyl)-phenyl]-amide], the IC50 in assay [1] turned out to be 31 nM; in assay [4] it was 222 nM. Besides, the inhibition at 2 µM in assay [2] was -41%; in assay [3], 43%. The inhibition at 1 µM in assay [4] came to 70%.

Take `O=C(NCCCO)c1sc2ncnc3c2c1NC(=O)N3c1ccc(Oc2ccccc2)c(Cl)c1` [Cpd 137, 5-(3-chloro-4-phenoxy-phenyl)-4-oxo-4,5-dihydro-3H-1-thia-3,5,6,8-tetraaza-acenaphthylene-2-carboxylic acid (3-hydroxy-propyl)-amide]: the IC50 in assay [1] was determined as 30 nM; in assay [4] it was 1630 nM. In addition, the figures for the inhibition at 2 µM in assay [2] and in assay [3] were 26% and 43%, respectively. Also, the inhibition at 1 µM in assay [4] stood at 48%.

`O=C(Nc1ccc(CN2CCOCC2)cc1)c1sc2ncnc3c2c1NC(=O)N3c1ccc(Oc2ccccc2)c(Cl)c1` [Cpd 138, 5-(3-chloro-4-phenoxy-phenyl)-4-oxo-4,5-dihydro-3H-1-thia-3,5,6,8-tetraaza-acenaphthylene-2-carboxylic acid (4-morpholin-4-ylmethyl-phenyl)-amide]: the IC50 in assay [1] was determined as 59 nM; in assay [4], 178 nM. Moreover, the inhibition at 2 µM in assay [2] came out at 39%; in assay [3] it was 50%.

Regarding `O=C(Nc1ccc(CN2CCCCC2)cc1)c1sc2ncnc3c2c1NC(=O)N3c1ccc(-c2ccc(Cl)cc2)cc1` [Cpd 139, 5-(4′-chloro-biphenyl-4-yl)-4-oxo-4,5-dihydro-3H-1-thia-3,5,6,8-tetraaza-acenaphthylene-2-carboxylic acid (4-piperidin-1-ylmethyl-phenyl)-amide], the inhibition at 2 µM in assay [1] was 18%; in assay [2] it was 28%; in assay [3], 34%. Further, the IC50 in assay [4] is > 100000 nM.

Take `O=C(Nc1ccc(CN2CCOCC2)cc1)c1sc2ncnc3c2c1NC(=O)N3c1ccc(-c2ccc(Cl)cc2)cc1` [Cpd 140, 5-(4′-chloro-biphenyl-4-yl)-4-oxo-4,5-dihydro-3H-1-thia-3,5,6,8-tetraaza-acenaphthylene-2-carboxylic acid (4-morpholin-4-ylmethyl-phenyl)-amide]: the values for the inhibition at 2 µM in assay [1], in assay [2] and in assay [3] were 20%, 25% and 43%, respectively. The half-maximal inhibitory concentration (IC50) in assay [4] was > 100000 nM.

Source of the values: US7579356B2, “Thia-tetraazaacenaphthylene kinase inhibitors” (Janssen Pharmaceutica NV, priority 2005, dated 2009).
